This is an account of results in patent publication US20110172223A1, “Substituted Aryl Sulfone Derivatives as Calcium Channel Blockers” (priority 2008, published 2011).

For one assay, the target named is T1, Human Cav2.2 channels (Homo sapiens, UniProt Q00975).
T1 construct: expressed in transfected cells
Description: Fluorescent assay for Cav2.2 channels using potassium depolarization to initiate channel opening (Assay Example 1). Format: cell-based. The settings on record: Table 2. From the text:
Fluorescent Assay for Cav2.2 Channels Using Potassium Depolarization to Initiate Channel Opening
(§1) Human Cav2.2 channels were stably expressed in KEK293 cells along with alpha2-delta and beta subunits of voltage-gated calcium channels. An inwardly rectifying potassium channel (Kir2.3) was also expressed in these cells to allow more precise control of the cell membrane potential by extracellular potassium concentration. At low bath potassium concentration, the membrane potential is relatively negative, and is depolarized as the bath potassium concentration is raised. In this way, the bath potassium concentration can be used to regulate the voltage-dependent conformations of the channels. […]
(§2) Calcium influx through Cav2.2 channels is determined using a calcium-sensitive fluorescent dye in combination with a fluorescent plate reader. Fluorescent changes were measured with either a VIPR (Aurora Instruments) or FLIPR (Molecular Devices) plate reader.
(§3) • 1. […] Read cell plate on VIPR instrument, Excitation=480 nm, Emission=535 nm • 9. With VIPR continuously reading, add 0.1 ml (96-well plate) or 0.03 ml (384-well plate) of Depolarization Buffer, which is 2× the final assay concentration, to the cell plate.

Assay [1] addresses T2, N-type calcium channel (CaV2.2) (Homo sapiens, UniProt Q00975).
T2 construct: expressed in transfected cells
Description: N-type calcium channel antagonist activity in the aforementioned assays (Assay Examples 1-3: fluorescent, IonWorks HT, PatchXpress/manual patch clamp). Format: cell-based. The settings on record: antagonizing the N-type calcium channel; which of Assay Examples 1-3 is not specified.
From the text: as §1, §2, §3
Block of N-type calcium channels is evaluated utilizing the IonWorks HT 384 well automated patch clamp electrophysiology device. […]

T1 sequence (Q00975 whole entry): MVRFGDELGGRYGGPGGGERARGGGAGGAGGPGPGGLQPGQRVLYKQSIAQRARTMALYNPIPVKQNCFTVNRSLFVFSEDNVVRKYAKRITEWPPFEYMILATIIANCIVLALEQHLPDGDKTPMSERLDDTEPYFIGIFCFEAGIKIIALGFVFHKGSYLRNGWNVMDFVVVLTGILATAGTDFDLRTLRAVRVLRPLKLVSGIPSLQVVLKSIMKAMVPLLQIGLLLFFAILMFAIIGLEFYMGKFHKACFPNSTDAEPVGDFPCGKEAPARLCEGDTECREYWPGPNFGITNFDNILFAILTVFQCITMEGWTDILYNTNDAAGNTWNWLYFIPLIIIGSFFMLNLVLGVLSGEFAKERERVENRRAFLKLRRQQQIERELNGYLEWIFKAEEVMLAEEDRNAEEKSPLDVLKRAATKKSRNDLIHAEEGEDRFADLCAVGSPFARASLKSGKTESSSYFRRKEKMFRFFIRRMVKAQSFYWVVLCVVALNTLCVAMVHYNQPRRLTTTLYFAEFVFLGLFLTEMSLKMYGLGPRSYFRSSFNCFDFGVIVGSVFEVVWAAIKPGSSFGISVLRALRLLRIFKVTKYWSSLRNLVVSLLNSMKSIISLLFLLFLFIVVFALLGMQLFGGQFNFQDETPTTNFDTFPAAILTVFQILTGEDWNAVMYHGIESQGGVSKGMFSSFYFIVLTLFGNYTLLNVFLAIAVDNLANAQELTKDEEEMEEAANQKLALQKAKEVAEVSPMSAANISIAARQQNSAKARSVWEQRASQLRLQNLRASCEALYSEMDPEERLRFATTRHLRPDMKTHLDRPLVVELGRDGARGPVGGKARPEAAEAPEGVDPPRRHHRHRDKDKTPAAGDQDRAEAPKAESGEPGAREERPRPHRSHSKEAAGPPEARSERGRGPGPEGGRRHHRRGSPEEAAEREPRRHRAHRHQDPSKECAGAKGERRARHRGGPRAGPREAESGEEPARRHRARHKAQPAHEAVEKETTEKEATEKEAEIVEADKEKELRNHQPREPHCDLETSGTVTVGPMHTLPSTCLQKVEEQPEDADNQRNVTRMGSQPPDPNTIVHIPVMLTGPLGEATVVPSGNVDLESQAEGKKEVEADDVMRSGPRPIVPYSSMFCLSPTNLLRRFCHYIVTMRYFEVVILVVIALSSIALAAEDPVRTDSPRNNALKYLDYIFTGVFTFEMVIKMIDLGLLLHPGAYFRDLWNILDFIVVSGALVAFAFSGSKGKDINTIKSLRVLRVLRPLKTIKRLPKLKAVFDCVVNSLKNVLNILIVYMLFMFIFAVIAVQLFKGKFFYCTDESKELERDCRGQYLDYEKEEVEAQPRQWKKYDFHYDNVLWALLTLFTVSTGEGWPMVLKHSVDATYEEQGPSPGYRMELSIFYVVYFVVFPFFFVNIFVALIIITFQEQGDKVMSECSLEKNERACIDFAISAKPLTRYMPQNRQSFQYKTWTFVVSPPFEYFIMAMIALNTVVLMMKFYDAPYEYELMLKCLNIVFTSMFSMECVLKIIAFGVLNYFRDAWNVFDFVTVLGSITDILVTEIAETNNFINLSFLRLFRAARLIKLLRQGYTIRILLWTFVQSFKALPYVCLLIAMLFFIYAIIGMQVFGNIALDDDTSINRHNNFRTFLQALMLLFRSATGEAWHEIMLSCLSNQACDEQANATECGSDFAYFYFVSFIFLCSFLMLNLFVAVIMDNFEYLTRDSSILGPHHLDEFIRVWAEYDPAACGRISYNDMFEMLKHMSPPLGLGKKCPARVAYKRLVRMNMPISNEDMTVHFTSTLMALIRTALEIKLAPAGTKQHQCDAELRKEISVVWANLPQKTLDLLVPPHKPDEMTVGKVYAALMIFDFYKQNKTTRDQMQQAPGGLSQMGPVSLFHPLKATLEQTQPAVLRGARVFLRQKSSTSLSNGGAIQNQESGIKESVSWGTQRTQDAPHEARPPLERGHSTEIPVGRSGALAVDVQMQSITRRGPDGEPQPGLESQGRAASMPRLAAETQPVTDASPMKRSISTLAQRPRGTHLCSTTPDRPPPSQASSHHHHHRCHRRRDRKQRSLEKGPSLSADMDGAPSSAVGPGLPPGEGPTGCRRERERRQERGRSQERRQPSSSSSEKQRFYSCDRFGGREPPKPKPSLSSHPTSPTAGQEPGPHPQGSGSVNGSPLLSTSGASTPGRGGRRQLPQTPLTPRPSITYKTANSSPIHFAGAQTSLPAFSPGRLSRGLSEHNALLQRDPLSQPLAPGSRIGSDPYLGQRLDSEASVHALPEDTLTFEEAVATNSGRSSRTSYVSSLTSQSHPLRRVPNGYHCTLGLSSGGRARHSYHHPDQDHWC
T1 sequence (P54289 25-946 partner limits assumed): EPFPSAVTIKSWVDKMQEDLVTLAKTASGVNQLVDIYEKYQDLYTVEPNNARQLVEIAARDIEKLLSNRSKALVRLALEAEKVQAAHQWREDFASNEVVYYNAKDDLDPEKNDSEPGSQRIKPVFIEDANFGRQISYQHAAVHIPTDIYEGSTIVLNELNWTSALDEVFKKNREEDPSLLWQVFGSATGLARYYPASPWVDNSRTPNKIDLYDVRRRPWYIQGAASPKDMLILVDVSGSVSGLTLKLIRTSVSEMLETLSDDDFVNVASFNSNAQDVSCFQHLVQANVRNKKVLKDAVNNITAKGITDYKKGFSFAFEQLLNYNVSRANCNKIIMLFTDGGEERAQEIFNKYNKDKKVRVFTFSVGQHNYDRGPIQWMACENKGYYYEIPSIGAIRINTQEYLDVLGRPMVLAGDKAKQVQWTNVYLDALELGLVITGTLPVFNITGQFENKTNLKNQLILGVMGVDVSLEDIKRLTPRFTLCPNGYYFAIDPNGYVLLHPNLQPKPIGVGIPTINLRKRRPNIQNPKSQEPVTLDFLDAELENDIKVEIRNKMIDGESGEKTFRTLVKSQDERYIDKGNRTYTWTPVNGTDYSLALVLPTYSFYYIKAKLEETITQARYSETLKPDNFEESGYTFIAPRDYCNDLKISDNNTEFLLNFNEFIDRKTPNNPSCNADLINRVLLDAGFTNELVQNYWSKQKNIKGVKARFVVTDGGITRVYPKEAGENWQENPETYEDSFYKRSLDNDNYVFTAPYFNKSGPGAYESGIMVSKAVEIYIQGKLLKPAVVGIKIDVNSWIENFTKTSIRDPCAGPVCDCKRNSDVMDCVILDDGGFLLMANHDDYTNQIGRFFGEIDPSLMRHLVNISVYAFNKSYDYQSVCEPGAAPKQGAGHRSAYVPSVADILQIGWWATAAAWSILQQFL
T1 sequence (P54289 947-1103 partner limits assumed): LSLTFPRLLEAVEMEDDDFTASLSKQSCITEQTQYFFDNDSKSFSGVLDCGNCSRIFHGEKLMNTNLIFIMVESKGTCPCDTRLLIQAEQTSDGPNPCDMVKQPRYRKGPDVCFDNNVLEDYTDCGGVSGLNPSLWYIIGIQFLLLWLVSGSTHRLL
T1 sequence (P54284 whole entry partner): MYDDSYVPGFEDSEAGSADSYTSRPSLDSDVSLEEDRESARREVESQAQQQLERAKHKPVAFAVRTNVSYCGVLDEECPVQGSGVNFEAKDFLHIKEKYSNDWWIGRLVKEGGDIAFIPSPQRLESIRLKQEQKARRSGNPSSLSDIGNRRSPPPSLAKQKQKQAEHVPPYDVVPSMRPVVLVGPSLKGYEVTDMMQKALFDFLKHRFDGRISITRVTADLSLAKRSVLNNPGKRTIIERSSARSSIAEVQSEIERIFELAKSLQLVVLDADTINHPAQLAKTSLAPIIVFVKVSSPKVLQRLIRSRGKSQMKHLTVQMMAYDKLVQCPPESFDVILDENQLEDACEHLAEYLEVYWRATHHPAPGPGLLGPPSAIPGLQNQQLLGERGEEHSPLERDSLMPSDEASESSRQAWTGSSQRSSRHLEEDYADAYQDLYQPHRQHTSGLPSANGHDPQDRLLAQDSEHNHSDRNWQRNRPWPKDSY
T2 sequence (Q00975 whole entry): as the sequence (Q00975 whole entry) above
T2 sequence (P54289 25-946 partner limits assumed): as the sequence (P54289 25-946 partner limits assumed) above
T2 sequence (P54289 947-1103 partner limits assumed): as the sequence (P54289 947-1103 partner limits assumed) above
T2 sequence (P54284 whole entry partner): as the sequence (P54284 whole entry partner) above

Usually IC50 stands for the concentration at which inhibition is half-maximal. For `CC(C)(C1CN(c2ccc(C(F)(F)F)cc2)C(=O)O1)S(=O)(=O)c1cccc(C(F)(F)F)c1` (stereo not drawn), the IC50 on Human Cav2.2 channels amounted to 745 nM.
Still for that read-out and setting: under `CC(C)([C@H]1CN(c2ccc(C(F)(F)F)cn2)C(=O)CO1)S(=O)(=O)c1cccc(C(F)(F)F)c1` [drawing 26] stands 1510 nM.
Take `CC(C)([C@H]1CN(c2ccc(C(F)(F)F)cn2)C(=O)CO1)S(=O)(=O)c1cccc(C(F)(F)F)c1` [Example 6, (6R)-6-(1-methyl-1-{[3-(trifluoromethyl)phenyl]sulfonyl}ethyl)-4-[5-(trifluoromethyl)pyridin-2-yl]morpholin-3-one]: the 50% inhibitory concentration (IC50) in assay [1] turned out to be 1520 nM.
